In US20250034147A1, “MDM2 DEGRADERS AND USES THEREOF” (Kymera Therapeutics, Inc., priority 2021, published 2025):
pIC50: −log10 of the molar value.

Tests used:
RS411 cells = test: Cell Viability CTG Assay; type: cell-based; conditions: Homo sapiens, RS4-11, CellTiter Glo (CTG) cell viability, read-out: Average external-IC50
Procedure, shortened: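 RS411 cells (1000/well) exposed 1 day at 37 °C to compound, 11-point 3-fold dilution from 10 μM top, 0.2% DMSO final. Viability read by CellTiter-Glo luminescence; IC50 reported as letter bins.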

HiBiT-tagged MDM2 = target: T1, HiBiT-tagged MDM2 (Homo sapiens, UniProt Q00987); test: MDM2 HiBit HEK293T degradation; type: cell-based; conditions: HEK293T cells stably expressing C-terminally HiBiT-tagged MDM2; 4 h; read-out: MDM2 HiBit HEK293T degradation 4 h: Average external-Abs DC50
T1 construct: expressed in transfected cells
Procedure, shortened: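 Degradation was measured in HEK293T cells stably expressing C-terminally HiBiT-tagged MDM2, a pool selected with 1 microgram/ml puromycin. A MDM2 tool degrader and HaloPROTAC3 served as positive controls. Potency is reported as DC50 in letter bins.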

T1 sequence (Q00987 whole entry): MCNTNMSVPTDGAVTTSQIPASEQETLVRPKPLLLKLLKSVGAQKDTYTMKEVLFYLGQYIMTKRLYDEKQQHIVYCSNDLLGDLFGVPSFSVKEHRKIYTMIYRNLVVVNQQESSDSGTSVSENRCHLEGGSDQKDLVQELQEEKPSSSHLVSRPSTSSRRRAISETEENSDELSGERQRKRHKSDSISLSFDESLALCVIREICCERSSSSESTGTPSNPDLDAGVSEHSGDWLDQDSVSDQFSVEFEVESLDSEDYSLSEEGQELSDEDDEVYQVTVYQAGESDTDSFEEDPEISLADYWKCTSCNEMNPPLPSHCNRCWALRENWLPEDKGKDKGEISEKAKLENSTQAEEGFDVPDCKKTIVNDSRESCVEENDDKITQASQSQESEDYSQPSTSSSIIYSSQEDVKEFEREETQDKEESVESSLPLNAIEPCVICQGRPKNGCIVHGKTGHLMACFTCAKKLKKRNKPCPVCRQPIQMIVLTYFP

## Cn1c(=O)n(C2CCC(=O)NC2=O)c2ccc(N3CC4(CCN(C(=O)[C@H]5CC[C@H](NC(=O)[C@@H]6NC7(CCCCC7)[C@@]7(C(=O)Nc8cc(Cl)ccc87)[C@H]6c6cccc(Cl)c6F)CC5)CC4)C3)cc21 (stereo partly drawn) [I-86]
RS411 cells
  pIC50: > 8.30
HiBiT-tagged MDM2
  DC50: < 10 nM

## O=C(N[C@H]1CC[C@H](CN2CCC(CCCCCC3CCN(C[C@H]4CC[C@H](NC(=O)[C@@H]5NC6(CCCCC6)[C@@]6(C(=O)Nc7cc(Cl)ccc76)[C@H]5c5cccc(Cl)c5F)CC4)CC3)CC2)CC1)[C@@H]1NC2(CCCCC2)[C@@]2(C(=O)Nc3cc(Cl)ccc32)[C@H]1c1cccc(Cl)c1F [I-87]
RS411 cells
  pIC50: < 6.30
HiBiT-tagged MDM2
  DC50: > 1000 nM

## Cn1c(=O)n(C2CCC(=O)NC2=O)c2ccc(N3CC4(CN(C[C@H]5CC[C@H](NC(=O)[C@@H]6NC7(CCCCC7)[C@@]7(C(=O)Nc8cc(Cl)ccc87)[C@H]6c6cccc(Cl)c6F)CC5)C4)C3)cc21 (stereo partly drawn) [I-88]
RS411 cells
  pIC50: > 8.30
HiBiT-tagged MDM2
  DC50: < 10 nM

## CN(CCc1ccc2c(c1)n(C)c(=O)n2C1CCC(=O)NC1=O)CCN(C)C(=O)[C@H]1CC[C@H](NC(=O)[C@@H]2NC3(CCCCC3)[C@@]3(C(=O)Nc4cc(Cl)ccc43)[C@H]2c2cccc(Cl)c2F)CC1 (stereo partly drawn) [I-89]
RS411 cells
  pIC50: 7.30 to 8.30
HiBiT-tagged MDM2
  DC50: < 10 nM

## CN1C(C(=O)N[C@H]2CC[C@H](C(=O)N3CCC4(CC3)CN(c3ccc5c(c3)n(C)c(=O)n5C3CCC(=O)NC3=O)C4)CC2)[C@H](c2cccc(Cl)c2F)[C@]2(C(=O)Nc3cc(Cl)ccc32)C12CCCCC2 (stereo partly drawn) [I-91]
RS411 cells
  pIC50: 7.30 to 8.30
HiBiT-tagged MDM2
  DC50: < 10 nM

## COc1cc2c(cc1OC(C)C)[C@H](c1ccc(Cl)cc1)N(c1ccc(N(C)C[C@H]3CC[C@H](N(CC(=O)O)C(=O)CCCCc4ccc5c(c4)n(C)c(=O)n5C4CCC(=O)NC4=O)CC3)cc1)C(=O)C2 (stereo partly drawn) [I-93]
RS411 cells
  pIC50: < 6.30
HiBiT-tagged MDM2
  DC50: 100 to 1000 nM

## Cn1c(=O)n(C2CCC(=O)NC2=O)c2ccc(C3CCN(C[C@H]4CC[C@H](NC(=O)[C@@H]5NC6(CCCCC6)[C@@]6(C(=O)Nc7cc(CC8CC8)ccc76)[C@H]5c5cccc(Cl)c5F)CC4)CC3)cc21 (stereo partly drawn) [I-94]
RS411 cells
  pIC50: < 6.30
HiBiT-tagged MDM2
  DC50: > 1000 nM

## CCOc1ccc2c(c1)NC(=O)[C@]21[C@@H](c2cccc(Cl)c2F)[C@H](C(=O)N[C@H]2CC[C@H](CN3CCC(c4ccc5c(c4)n(C)c(=O)n5C4CCC(=O)NC4=O)CC3)CC2)NC12CCCCC2 (stereo partly drawn) [I-95]
RS411 cells
  pIC50: < 6.30
HiBiT-tagged MDM2
  DC50: 100 to 1000 nM

## CCOc1ccc2c(c1)NC(=O)C21[C@@H](c2cccc(Cl)c2F)[C@H](C(=O)N[C@H]2CC[C@H](C(=O)C3CCN(CCCc4ccc5c(c4)n(C)c(=O)n5C4CCC(=O)NC4=O)CC3)CC2)NC12CCCCC2 (stereo partly drawn) [I-96]
RS411 cells
  pIC50: < 6.30
HiBiT-tagged MDM2
  DC50: < 10 nM

## Cn1c(=O)n(C2CCC(=O)NC2=O)c2ccc(CCN3CCC(NC(=O)[C@@H]4NC5(CCCCC5)[C@@]5(C(=O)Nc6cc(Cl)ccc65)[C@H]4c4cccc(Cl)c4F)CC3)cc21 (stereo partly drawn) [I-97]
RS411 cells
  pIC50: 7.30 to 8.30
HiBiT-tagged MDM2
  DC50: < 10 nM

## Cn1c(=O)n(C2CCC(=O)NC2=O)c2ccc(CN3CCC(NC(=O)[C@@H]4NC5(CCCCC5)[C@@]5(C(=O)Nc6cc(Cl)ccc65)[C@H]4c4cccc(Cl)c4F)CC3)cc21 (stereo partly drawn) [I-98]
RS411 cells
  pIC50: 7.30 to 8.30
HiBiT-tagged MDM2
  DC50: 100 to 1000 nM

## O=C(O)Cn1c(=O)n(C2CCC(=O)NC2=O)c2ccc(C3CCN(C(=O)[C@H]4CC[C@H](NC(=O)[C@@H]5NC6(CCCCC6)[C@@]6(C(=O)Nc7cc(Cl)ccc76)[C@H]5c5cccc(Cl)c5F)CC4)CC3)cc21 (stereo partly drawn) [I-99]
RS411 cells
  pIC50: 7.30 to 8.30
HiBiT-tagged MDM2
  DC50: 100 to 1000 nM
